Source: patent US20120302614A1, “METHOD FOR IMPROVING CEREBRAL CIRCULATION OR TREATING A CEREBRAL BLOOD FLOW DISORDER” (OSAKA UNIVERSITY, priority 2007, published 2012)

Legend:
Assay type in all cases: in vivo, ddY mouse
[1] = Blood pressure by tail-cuff method, Test Example 1
Description: The therapeutic effect of olmesartan medoxomil in Aβ injection model and the dose dependency thereof were examined according to the following experimental schedule. [Experimental Schedule]: Prior to the experiment, 8-week old male ddY mice were administered olmesartan medoxomil (0.5 mg/kg/day, 1 mg/kg/day, 3 mg/kg/day or 6 mg/kg/day) or distilled water orally for four weeks (day −28 to −1). Then, Aβ 1-40 was administered to the mice intracerebroventricularly (day 0). (Although Aβ 1-40 was administered into one of the lateral ventricles in WO 2006/059777, Aβ 1-40 was administered in Test Example 1 to both lateral ventricles with an interval of one day between two administrations. Except for this point, Aβ 1-40 administration was performed in the same manner as in WO 2006/059777.) From one week thereafter, a behavioral test to evaluate cognitive function (Morris water maze test; Morris R et al., J Neuroscience Methods 1984, 11, 47-60) was performed (day 7 to 12). As a negative control, mice which had received oral administration of distilled water for four weeks were administered Aβ 40-1 intracerebroventricularly. The administration of olmesartan medoxomil or distilled water was continued until the end of the behavioral test. Measurements were performed as described below. • Hidden platform test: A platform is placed below the water surface of a water pool 150 cm in diameter filled with white water-colored. Mice are released into the water, and the time it takes them to reach the platform is measured. This trial is performed three times a day and for five consecutive days. As they learn, mice become able to reach the platform more quickly day by day. • Visible platform test: Mice are released into the water under such conditions that they can see the platform. The time it takes them to reach the platform is measured. • Probe test: The platform is removed, and mice are released and allowed to swim freely. […] The time they spent in that quadrant is measured. • Annnulus crossing: The number of times mice crossed the platform in the probe test is counted. […]

[2] = system: Aβ injection model (Aβ 1-40 administered intracerebroventricularly); assay: Morris water maze test in Aβ injection model, Test Example 1
Description: The therapeutic effect of olmesartan medoxomil in Aβ injection model and the dose dependency thereof were examined according to the following experimental schedule. [Experimental Schedule]: Prior to the experiment, 8-week old male ddY mice were administered olmesartan medoxomil (0.5 mg/kg/day, 1 mg/kg/day, 3 mg/kg/day or 6 mg/kg/day) or distilled water orally for four weeks (day −28 to −1). Then, Aβ 1-40 was administered to the mice intracerebroventricularly (day 0). (Although Aβ 1-40 was administered into one of the lateral ventricles in WO 2006/059777, Aβ 1-40 was administered in Test Example 1 to both lateral ventricles with an interval of one day between two administrations. Except for this point, Aβ 1-40 administration was performed in the same manner as in WO 2006/059777.) From one week thereafter, a behavioral test to evaluate cognitive function (Morris water maze test; Morris R et al., J Neuroscience Methods 1984, 11, 47-60) was performed (day 7 to 12). As a negative control, mice which had received oral administration of distilled water for four weeks were administered Aβ 40-1 intracerebroventricularly. The administration of olmesartan medoxomil or distilled water was continued until the end of the behavioral test. Measurements were performed as described below. • Hidden platform test: A platform is placed below the water surface of a water pool 150 cm in diameter filled with white water-colored. Mice are released into the water, and the time it takes them to reach the platform is measured. This trial is performed three times a day and for five consecutive days. As they learn, mice become able to reach the platform more quickly day by day. • Visible platform test: Mice are released into the water under such conditions that they can see the platform. The time it takes them to reach the platform is measured. • Probe test: The platform is removed, and mice are released and allowed to swim freely. Those mice with good learning/memory swim in the quadrant where the platform was located searching for the platform. The time they spent in that quadrant is measured. • Annnulus crossing: The number of times mice crossed the platform in the probe test is counted.

[3] = Blood pressure, Test Example 2 (hydralazine as hypotensive control); conditions: after 4-week oral administration (day −1); olmesartan medoxomil 1 mg/kg/day, hydralazine 30 mg/kg/day
Description: Further, assessment of blood pressure was performed by the tail-cuff method (using a sphygmomanometer wound around the mouse tail) (Bunag R D, J Lab Clin Med. 1971, 78, 957-62) immediately before the start of administration of olmesartan medoxomil or distilled water (day −30), immediately before (day −1) and immediately after (day 2) the Aβ intracerebroventricular administration, and after completion of the behavioral test (day 14) (see FIG. 1). […] The dose of olmesartan medoxomil was set at a low level of 1 mg/kg/day in view of the experimental results of Test Example 1. […] The number of successive interceptions by the subject of the two adjoining beams on each bank is counted as locomotion score. • Long-term retention: On day 12 after the completion of the hidden platform test as a water maze test, mice are released into the water and the time it takes them to reach the platform is measured. • Working memory task: The platform is transferred and fixed at a new place. Mice are given four consecutive trials at intervals of as short as 20 seconds, and the time it takes them to reach the platform is measured. […] In order to eliminate this influence, swimming speed is measured.

[4] = 0.5 mg/kg/day oral, versus Aβ 1-40 administration group
[5] = 1.0 mg/kg/day oral, versus Aβ 1-40 administration group

In the case of CCCc1nc(C(C)(C)O)c(C(=O)OCc2oc(=O)oc2C)n1Cc1ccc(-c2ccccc2-c2nnn[nH]2)cc1 [olmesartan medoxomil, (5-methyl-2-oxo-1,3-dioxolen-4-yl)methyl 4-(1-hydroxy-1-methylethyl)-2-propyl-1-[4-[2-(tetrazol-5-yl)phenyl]phenyl]methyl-imidazole-5-carboxylate], the “blood pressure compared to the distilled water administration group” value ([1]; after 4-week oral administration (day −1), olmesartan medoxomil administration groups (0.5, 1, 3, 6 mg/kg/day)) is reported as “significantly lowered”, the blood pressure ([1]; immediately after Aβ administration (day 2) and after completion of the behavioral test (day 14)) is reported as “A similar tendency was observed” and the blood pressure ([1]; lowest dose 0.5 mg/kg/day oral, after 4-week administration (day −1)) is reported as “significant lowering”. The “hidden platform test: escape latency (impairment in spatial memory and learning ability)” value (“hidden platform test: escape latency” for short) [2, 4] was “improved significantly”, the “probe test: time spent in the target quadrant” value [2, 4] was “significantly improved” and the “hidden platform test: escape latency” value [2, 5] was “improved significantly”. The “number of annulus crossings” value [2, 5] was “significantly improved”, the “probe test: time spent in the target quadrant” value [2, 5] was “significantly improved” and the “hidden platform test: escape latency” value ([2]; 3.0 mg/kg/day oral, versus Aβ 1-40 administration group) was “improved significantly”. For the same compound, the “improvement of impairment in spatial memory and learning evoked by Aβ 1-40” value ([2]; high dose groups (3-6 mg/kg/day)) was “not observed”, the “improvement of impairment in spatial memory and learning evoked by Aβ 1-40” value ([2]; low dose groups (0.5-1 mg/kg/day)) was “observed” and the “cognitive impairment (spatial memory and learning) in Morris water maze test, overall” value ([2]; oral administration for four weeks in advance of Aβ 1-40) was “significantly improved”. The “blood pressure compared to distilled water administration group” value [3] was “lowered significantly”.
